Key:
[1] = molecular target: T1, plasma kallikrein (Homo sapiens, UniProt P03952); test: Neat human plasma assay, FXIIa contact pathway-activated, PFR-AMC substrate; format: biochemical; settings: citrated human plasma 78% final, 10 nM human FXIIa, 100 μM PFR-AMC; read-out: Human Plasma Assay: IC90
T1 construct: from tissue
Procedure, shortened: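 Citrated human plasma (78% final) with compound, contact-activated by 10 nM human FXIIa in pKal buffer pH 7.5, with 100 μM PFR-AMC. Fluorescence (360/480 nm) followed 5 min at room temperature; rates versus concentration fitted by 4-parameter equation for IC50/IC90.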

[2] = molecular target: human activated kallikrein enzyme (Homo sapiens, UniProt P03952); test: Plasma kallikrein inhibition, fluorogenic PFR-AMC substrate, 500 pM activated kallikrein format; format: biochemical; settings: 500 pM activated kallikrein, 300 uM PFR-AMC, 30 min preincubation, 10 min reaction; read-out: Primary Dose Response Assay: Average EC50
Procedure, shortened: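 Enzyme (500 pM) was preincubated with inhibitor for 30 min at room temperature in 20 mM Tris pH 7.5, 1 mM EDTA, 150 mM NaCl, 0.1% PEG-400 and 0.1% Triton X-100. The reaction was started with 300 uM PFR-AMC, run 10 min, and fluorescence read at 460 nm (380 nm excitation). EC50 derived.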

Sequence of human activated kallikrein enzyme (P03952 391-638 limits assumed): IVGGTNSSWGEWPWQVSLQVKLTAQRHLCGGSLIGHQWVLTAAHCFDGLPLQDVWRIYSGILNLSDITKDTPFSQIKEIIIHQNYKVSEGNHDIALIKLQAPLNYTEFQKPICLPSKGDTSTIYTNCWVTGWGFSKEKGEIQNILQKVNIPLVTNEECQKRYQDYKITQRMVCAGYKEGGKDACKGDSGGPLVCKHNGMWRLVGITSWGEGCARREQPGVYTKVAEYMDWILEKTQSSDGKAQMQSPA
Sequence of human activated kallikrein enzyme (P03952 20-390 partner limits assumed): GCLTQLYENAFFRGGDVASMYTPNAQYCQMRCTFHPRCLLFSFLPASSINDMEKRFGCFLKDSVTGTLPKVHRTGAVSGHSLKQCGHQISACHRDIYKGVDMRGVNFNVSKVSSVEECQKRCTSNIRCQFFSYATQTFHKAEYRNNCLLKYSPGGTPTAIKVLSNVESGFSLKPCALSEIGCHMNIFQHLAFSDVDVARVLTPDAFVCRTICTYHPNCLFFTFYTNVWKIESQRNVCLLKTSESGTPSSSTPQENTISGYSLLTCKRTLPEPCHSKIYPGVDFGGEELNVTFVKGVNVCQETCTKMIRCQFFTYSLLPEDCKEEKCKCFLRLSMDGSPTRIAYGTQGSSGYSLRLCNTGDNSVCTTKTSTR
T1 sequence (P03952 391-638 limits assumed): as the sequence (P03952 391-638 limits assumed) above
T1 sequence (P03952 20-390 partner limits assumed): as the sequence (P03952 20-390 partner limits assumed) above

SMILES | IC90 [1] [µM] | EC50 [2] [µM]
NCc1cc(C2CC2)cn2cc(CNc3ccnc(NC(=O)[C@H]4C[C@@H]4c4cccc(Cl)c4)c3)nc12 [Example 293, (1S,2S)—N-(4-(((8-(aminomethyl)-6-cyclopropylimidazo[1,2-a]pyridin-2-yl)methyl)amino)pyridin-2-yl)-2-(3-chlorophenyl)cyclopropane-1-carboxamide] | 1.5 to 10 | < 0.001
O=C(Nc1cc(NCc2cn3cc(C4CC4)cc(C4(F)COC4)c3n2)ncn1)[C@H]1C[C@@H]1c1cccc(Cl)c1 (racemic) [Example 64, rac-(1S*,2S*)-2-(3-chlorophenyl)-N-(6-(((6-cyclopropyl-8-(3-fluorooxetan-3-yl)imidazo[1,2-α]pyridin-2-yl)methyl)amino)pyrimidin-4-yl)cyclopropane-1-carboxamide] | > 48 | 0.001 to 0.01
CN1CCN(c2cc(C3CC3)cn3cc(CNc4ccnc(NC(=O)[C@@H]5C[C@H]5c5cc(Cl)ccc5C#N)c4)nc23)CC1 (racemic) [Example 143, rac-(1S*,2S*)-2-(5-chloro-2-cyanophenyl)-N-(4-(((6-cyclopropyl-8-(4-methylpiperazin-1-yl)imidazo[1,2-a]pyridin-2-yl)methyl)amino)pyridin-2-yl)cyclopropane-1-carboxamide] | 0.4 to 1.5 | < 0.001
Cc1ccnc([C@H]2C[C@@H]2C(=O)Nc2ncc(F)c(NCc3cn4cc(C5CC5)cc(N5CC(=O)N(CCO)C5=O)c4n3)n2)n1 (racemic) [Example 540, rac-(1S*,2S*)—N-(4-(((6-cyclopropyl-8-(3-(2-hydroxyethyl)-2,4-dioxoimidazolidin-1-yl)imidazo[1,2-a]pyridin-2-yl)methyl)amino)-5-fluoropyrimidin-2-yl)-2-(4-methylpyrimidin-2-yl)cyclopropane-1-carboxamide] | < 0.4 | < 0.001
O=C1CN(c2cc(C3CC3)cn3cc(CNc4cc(NC(=O)[C@H]5C[C@@H]5c5cc(Cl)ccn5)ncn4)nc23)C(=O)N1 [Example 395, (1S,2S)-2-(4-chloropyridin-2-yl)-N-(6-(((6-cyclopropyl-8-(2,4-dioxoimidazolidin-1-yl)imidazo[1,2-a]pyridin-2-yl)methyl)amino)pyrimidin-4-yl)cyclopropane-1-carboxamide] | < 0.4 | < 0.001
[2H]C([2H])(Nc1cc(NC(=O)[C@H]2C[C@@H]2c2nccc(C)n2)ncn1)c1cn2cc(C3CC3)cc(N3CC(=O)N(C)C3=O)c2n1 (racemic) [Example 391, rac-(1S*,2S*)-N-(6-(((6-cyclopropyl-8-(3-methyl-2,4-dioxoimidazolidin-1-yl)imidazo[1,2-a]pyridin-2-yl)methyl-d2)amino)pyrimidin-4-yl)-2-(4-methylpyrimidin-2-yl)cyclopropane-1-carboxamide] | < 0.4 | < 0.001
CN1C(=O)CCN(c2cc(C3CC3)cn3cc(CNc4cc(NC(=O)[C@H]5C[C@@H]5c5cccc(Cl)c5)ncn4)nc23)C1=O [Example I-194, (1S,2S)-2-(3-chlorophenyl)-N-(6-(((6-cyclopropyl-8-(3-methyl-2,4-dioxotetrahydropyrimidin-1(2H)-yl)imidazo[1,2-a]pyridin-2-yl)methyl)amino)pyrimidin-4-yl)cyclopropane-1-carboxamide] | 1.5 to 10 | < 0.001
Cc1cc(N2CC(=O)N(C)C2=O)c2nc([C@@H](C)Nc3cc(NC(=O)[C@H]4C[C@@H]4c4nccc(C)n4)nc(C)n3)cn2c1 [Example 434, (1S,2S)-N-(2-methyl-6-(((R)-1-(6-methyl-8-(3-methyl-2,4-dioxoimidazolidin-1-yl)imidazo[1,2-a]pyridin-2-yl)ethyl)amino)pyrimidin-4-yl)-2-(4-methylpyrimidin-2-yl)cyclopropane-1-carboxamide] | < 0.4 | < 0.001
Cc1ccnc([C@H]2C[C@@H]2C(=O)Nc2cc(N3C[C@@H](O)C[C@@H]3c3cn4cc([C@H]5C[C@@H]5C)ccc4n3)ncn2)n1 (relative stereo) [Example 470, (1S,2S)-N-(6-((2R,4S)-4-hydroxy-2-(6-((1S*,2S*)-2-methylcyclopropyl)imidazo[1,2-a]pyridin-2-yl)pyrrolidin-1-yl)pyrimidin-4-yl)-2-(4-methylpyrimidin-2-yl)cyclopropane-1-carboxamide] | 1.5 to 10 | 0.001 to 0.01
O=C(Nc1cc(NCc2cn3cc(C4CC4)ccc3n2)cc(O)n1)[C@H]1C[C@@H]1c1cccc(Cl)c1 [Example 611, (1S,2S)-2-(3-chlorophenyl)-N-(4-(((6-cyclopropylimidazo[1,2-a]pyridin-2-yl)methyl)amino)-6-hydroxypyridin-2-yl)cyclopropane-1-carboxamide] | 1.5 to 10 | < 0.001
Cc1ccnc([C@H]2C[C@@H]2C(=O)Nc2cc(NCc3cn4cc(C5CC5)cc(N5CC(=O)N(C6COC6)C5=O)c4n3)ncn2)n1 [Example 378, (1S,2S)-N-(6-(((6-cyclopropyl-8-(3-(oxetan-3-yl)-2,4-dioxoimidazolidin-1-yl)imidazo[1,2-a]pyridin-2-yl)methyl)amino)pyrimidin-4-yl)-2-(4-methylpyrimidin-2-yl)cyclopropane-1-carboxamide] | < 0.4 | < 0.001
Cc1ccnc([C@H]2C[C@@H]2C(=O)Nc2cc(NCc3cn4cc(C5CC5)cc(N5CC(=O)N(C)C5=O)c4n3)ncn2)n1 (racemic) [Example I-259, rac-(1S*,2S*)—N-(6-(((6-cyclopropyl-8-(3-methyl-2,4-dioxoimidazolidin-1-yl)imidazo[1,2-a]pyridin-2-yl)methyl)amino)pyrimidin-4-yl)-2-(4-methylpyrimidin-2-yl)cyclopropane-1-carboxamide] | < 0.4 | < 0.001
COc1cnc(NC(=O)[C@H]2C[C@@H]2c2nccc(C)n2)nc1NCc1cn2cc(C3CC3)cc(N3CC(=O)N(C)C3=O)c2n1 (racemic) [Example I-244, rac-(1S*,2S*)-N-(4-(((6-cyclopropyl-8-(3-methyl-2,4-dioxoimidazolidin-1-yl)imidazo[1,2-a]pyridin-2-yl)methyl)amino)-5-methoxypyrimidin-2-yl)-2-(4-methylpyrimidin-2-yl)cyclopropane-1-carboxamide] | < 0.4 | < 0.001
O=C(Nc1cc(NCc2cn3cc(C4CC4)cc(N4CCN5CCC4C5)c3n2)ncn1)[C@H]1C[C@@H]1c1cccc(Cl)c1 (stereo partly drawn) [Example I-11, (1S,2S)-N-(6-(((8-(1,4-diazabicyclo[3.2.1]octan-4-yl)-6-cyclopropylimidazo[1,2-a]pyridin-2-yl)methyl)amino)pyrimidin-4-yl)-2-(3-chlorophenyl)cyclopropane-1-carboxamide] | 1.5 to 10 | 0.001 to 0.01
CN1CCN(c2cc(C3CC3)cn3cc(CNc4cc(NC(=O)[C@H]5C[C@@H]5c5cc(Cl)ccn5)ncn4)nc23)C(=O)C1 (racemic) [Example I-195, rac-(1S*,2S*)-2-(4-chloropyridin-2-yl)-N-(6-(((6-cyclopropyl-8-(4-methyl-2-oxopiperazin-1-yl)imidazo[1,2-a]pyridin-2-yl)methyl)amino)pyrimidin-4-yl)cyclopropane-1-carboxamide] | 0.4 to 1.5 | < 0.001

— patent US20240228488A1 (TAKEDA PHARMACEUTICAL COMPANY LIMITED, priority 2021, published 2024)
